From patent US6583309B1 (University of Medicine and Dentistry of New Jersey, priority 1999, dated 2003)

Target: TAR RNA
Assay: In vitro binding of resin-bound compounds to TAR RNA (OD260 of unbound RNA)
Set-up: species or system HIV
Details: in vitro assay; compounds of formula I on TentaGel beads incubated with TAR RNA overnight at 4° C. in TK buffer; read-out: Kd (nM), binding constants
Protocol: Binding of compounds of formula I and V to TAR RNA was measured by evaluating their inhibition of TAR-TAT complex formation in the presence of increasing levels of the compound to be tested. The compounds of formula I were tested in an in vitro assay; the compounds of formula V were tested in an in vivo assay.
The TAR RNA used corresponds to the minimal sequence required for TAT responsiveness in vivo. This 29-residue oligonucleotide has the sequence: 5′-[…]-3′ (SEQ ID NO.: 1). TAR RNA was prepared by in vitro transcription. A “top strand” single-stranded DNA oligomer having the sequence 5′-TAATACGACTCACTATAG-3′ (SEQ ID NO.: 2) was annealed to a “bottom strand” single-stranded DNA template having the following sequence: 3′-[…]-5′ (SEQ ID NO.: 3), thereby generating a double-stranded region corresponding to a promoter sequence recognized by T7 RNA polymerase. Transcription was carried out in transcription buffer (40 mM Tris-HCl, pH 8.1, 1 mM spermidine, 0.01% Triton®X-100, 5 mM dithiothreitol, 4 mM each of ATP, GTP, CTP, and UTP at 37° C. for 4 to 5 hours. Reactions were performed in a volume of 0.02 ml containing 8 pmole of template (top strand annealed to bottom strand) and 40 to 60 units of T7 RNA polymerase. Transcription was terminated by adding an equal volume of loading buffer (9M urea, 1 mmol EDTA, 0.1M bromophenol blue in 1XTBE buffer; TBE is 45 mmol trisborate at pH 8). Product RNA was purified by electrophoresis through a denaturing 20% polyacrylamide gel containing 8M urea. RNA was extracted from the gel, precipitated, dissolved in dithylpyrocarbonate-treated water, and stored at −20° C. until used.
In vitro assay conditions: Compounds AA-DU were synthesized on TentaGel S—NH2 (4.6 mmole). All Fmoc-amino acids were purchased from Bachem (Torrance, Calif.). 1-hydroxybenzotriazole (HOBT) and diisopropylcarbodiimide (DIPCDI) were obtained from Aldrich Chemical Co., Milwalkee, Wis. Piperidine and trifluoroacetic acid were purchased from Applied Biosystems Division, Perkin-Elmer. Compounds AA-DU were synthesized manually according to standard solid-phase peptide synthesis protocols. Coupling efficiencies of residues at each step were monitored by Kaiser test. Deprotection of trimer peptides was carried out in 10% water in trifluoroacetic acid (1 mL) for 16 hours at room temperature. After filtration of solvents, the resin was washed with water (1 mL×4), DMF (1 mL×4), dichloromethane (1 mL×4), and dried under reduced pressure. The compounds attached to the resin (10 beads) were placed in an Eppendorf tube and washed with TK buffer ([…]). The beads were suspended in TK buffer ([…]) and incubated with TAR RNA ([…]) overnight at 4° C. The suspension was centrifuged and the supernatant containing unbound RNA was transferred to a cuvette for OD260 measurements. The UV absorbance was measured by a Shimadzu UV-1601 spectrometer. Equilibrium concentrations of RNA were determined from these measurements. Given that the initial concentrations of ligand and RNA are known, and assuming simple bimolecular receptor/substrate binding, dissociation constant (KD) was calculated from straightforward equations.

Row | SMILES | Kd
1 | NCCCCCCCN(CC(=O)N[C@H](CCCCN)COC(N)=O)C(=O)OC[C@@H](N)CCCCN [Compound BK, Carbamic acid 6-amino-2-{2-[(7-amino-heptyl)-(2,6-diamino-hexyloxycarbonyl)-amino]-acetylamino}-hexyl ester] | 930 nM
2 | NCCCCCCCN(CC(=O)N[C@H](CCCCN)COC(N)=O)C(=O)OC[C@H](N)CCCCN [Compound BL, Carbamic acid 6-amino-2-{2-[(7-amino-heptyl)-(2,6-diamino-hexyloxycarbonyl)-amino]-acetylamino}-hexyl ester] | 718 nM
3 | NCCCCCCCN(CC(=O)N[C@H](CCCCN)COC(N)=O)C(=O)[C@@H](N)CCCCN [Compound BM, Carbamic acid 6-amino-2-{2-[(7-amino-heptyl)-(2,6-diamino-hexanoyl)-amino]-acetylamino}-hexyl ester] | 403 nM
4 | NCCCCCCCN(CC(=O)N[C@H](CCCCN)COC(N)=O)C(=O)[C@H](N)CCCCN [Compound BN, Carbamic acid 6-amino-2-{2-[(7-amino-heptyl)-(2,6-diamino-hexanoyl)-amino]-acetylamino}-hexyl ester] | 3150 nM
5 | NCCCCCCCN(CC(=O)N[C@H](CCCCN)COC(N)=O)C(=O)CNCCCCCN [Compound BO, Carbamic acid 6-amino-2-(2-{(7-amino-heptyl)-[2-(5-amino-pentylamino)-acetyl]-amino}-acetylamino)-hexyl ester] | 183 nM
6 | NCCCCCCCNCC(=O)N(CCCCCCCN)CC(=O)N[C@H](CCCCN)COC(N)=O [Compound BP, Carbamic acid 6-amino-2-(2-{(7-amino-heptyl)-[2-(7-amino-heptylamino)-acetyl]-amino}-acetylamino)-hexyl ester] | 2190 nM
7 | NCCCCCCCN(CC(=O)N[C@H](CCCCN)COC(N)=O)C(=O)CNCCCCN [Compound BQ, Carbamic acid 6-amino-2-{2-[[2-(4-amino-butylamino)-acetyl]-(7-amino-heptyl)-amino]-acetylamino}-hexyl ester] | 235 nM
8 | N=C(N)NCCC[C@H](N)COC(=O)N(CCCCCCCN)CC(=O)N[C@H](CCCCN)COC(N)=O [Compound BR, Carbamic acid 6-amino-2-{2-[(2-amino-5-guanidino-pentyloxycarbonyl)-(7-amino-heptyl)-amino]-acetylamino}-hexyl ester] | 5590 nM
9 | NCCCCCCCN(CC(=O)N[C@H](CCCCN)COC(N)=O)C(=O)OC[C@H](N)CCC(N)=O [Compound BS, Carbamic acid 6-amino-2-{2-[(2-amino-4-carbamoyl-butoxycarbonyl)-(7-amino-heptyl)-amino]-acetylamino}-hexyl ester] | 639 nM
10 | NCCCC[C@@H](N)COC(=O)N[C@@H](CCCCN)C(=O)N[C@H](CCCCN)COC(N)=O [Compound BU, Carbamic acid 6-amino-2-[6-amino-2-(2,6-diamino-hexyloxycarbonylamino)-hexanoylamino]-hexyl ester] | 1420 nM
11 | NCCCC[C@H](COC(N)=O)NC(=O)[C@H](CCCCN)NC(=O)[C@H](N)CCCCN [Compound BW, Carbamic acid 6-amino-2-[6-amino-2-(2,6-diamino-hexanoylamino)-hexanoylamino]-hexyl ester] | 678 nM
12 | NCCCCCNCC(=O)N[C@@H](CCCCN)C(=O)N[C@H](CCCCN)COC(N)=O [Compound BX, Carbamic acid 6-amino-2-{6-amino-2-[2-(5-amino-pentylamino)-acetylamino]-hexanoylamino}-hexyl ester] | 202 nM
13 | NCCCCCCCNCC(=O)N[C@@H](CCCCN)C(=O)N[C@H](CCCCN)COC(N)=O [Compound BY, Carbamic acid 6-amino-2-{6-amino-2-[2-(7-amino-heptylamino)-acetylamino]-hexanoylamino}-hexyl ester] | 183 nM
14 | NCCCCNCC(=O)N[C@@H](CCCCN)C(=O)N[C@H](CCCCN)COC(N)=O [Compound BZ, Carbamic acid 6-amino-2-{6-amino-2-[2-(4-amino-butylamino)-acetylamino]-hexanoylamino}-hexyl ester] | 130 nM
15 | NCCCC[C@H](N)COC(=O)N[C@H](CCCCN)COC(=O)N[C@@H](CCCCN)COC(N)=O [Compound CA, Carbamic acid 6-amino-2-[6-amino-2-(2,6-diamino-hexyloxycarbonylamino)-hexyloxycarbonylamino]-hexyl ester] | 460 nM
16 | NCCCC[C@@H](N)COC(=O)N[C@H](CCCCN)COC(=O)N[C@@H](CCCCN)COC(N)=O [Compound CB, Carbamic acid 6-amino-2-[6-amino-2-(2,6-diamino-hexyloxycarbonylamino)-hexyloxycarbonylamino]-hexyl ester] | 603 nM
17 | NCCCC[C@@H](COC(N)=O)NC(=O)OC[C@@H](CCCCN)NC(=O)[C@@H](N)CCCCN [Compound CC, Carbamic acid 6-amino-2-[6-amino-2-(2,6-diamino-hexanoylamino)-hexyloxycarbonylamino]-hexyl ester] | 567 nM
18 | NCCCCCNCC(=O)N[C@H](CCCCN)COC(=O)N[C@@H](CCCCN)COC(N)=O [Compound CE, Carbamic acid 6-amino-2-{6-amino-2-[2-(5-amino-pentylamino)-acetylamino]-hexyloxycarbonylamino}-hexyl ester] | 301 nM
19 | NCCCCCCCNCC(=O)N[C@H](CCCCN)COC(=O)N[C@@H](CCCCN)COC(N)=O [Compound CF, Carbamic acid 6-amino-2-{6-amino-2-[2-(7-amino-heptylamino)-acetylamino]-hexyloxycarbonylamino}-hexyl ester] | 567 nM
20 | NCCCCNCC(=O)N[C@H](CCCCN)COC(=O)N[C@@H](CCCCN)COC(N)=O [Compound CG, Carbamic acid 6-amino-2-{6-amino-2-[2-(4-amino-butylamino)-acetylamino]-hexyloxycarbonylamino}-hexyl ester] | 603 nM
21 | N=C(N)NCCC[C@H](N)COC(=O)N[C@H](CCCCN)COC(=O)N[C@@H](CCCCN)COC(N)=O [Compound CH, Carbamic acid 6-amino-2-[6-amino-2-(2-amino-5-guanidino-pentyloxycarbonylamino)-hexyloxycarbonylamino]-hexyl ester] | 865 nM
22 | NCCCC[C@@H](N)COC(=O)N[C@@H](CCCCN)COC(=O)N[C@@H](CCCCN)COC(N)=O [Compound CK, Carbamic acid 6-amino-2-[6-amino-2-(2,6-diamino-hexyloxycarbonylamino)-hexyloxycarbonylamino]-hexyl ester] | 1110 nM
23 | NCCCC[C@@H](COC(N)=O)NC(=O)OC[C@H](CCCCN)NC(=O)[C@H](N)CCCCN [Compound CM, Carbamic acid 6-amino-2-[6-amino-2-(2,6-diamino-hexanoylamino)-hexyloxycarbonylamino]-hexyl ester] | 491 nM
24 | NCCCCCNCC(=O)N[C@@H](CCCCN)COC(=O)N[C@@H](CCCCN)COC(N)=O [Compound CN, Carbamic acid 6-amino-2-{6-amino-2-[2-(5-amino-pentylamino)-acetylamino]-hexyloxycarbonylamino}-hexyl ester] | 235 nM
25 | NCCCCCCCNCC(=O)N[C@@H](CCCCN)COC(=O)N[C@@H](CCCCN)COC(N)=O [Compound CO, Carbamic acid 6-amino-2-{6-amino-2-[2-(7-amino-heptylamino)-acetylamino]-hexyloxycarbonylamino}-hexyl ester] | 147 nM
26 | NCCCCNCC(=O)N[C@@H](CCCCN)COC(=O)N[C@@H](CCCCN)COC(N)=O [Compound CP, Carbamic acid 6-amino-2-{6-amino-2-[2-(4-amino-butylamino)-acetylamino]-hexyloxycarbonylamino}-hexyl ester] | 678 nM
27 | N=C(N)NCCC[C@H](N)COC(=O)N[C@@H](CCCCN)COC(=O)N[C@@H](CCCCN)COC(N)=O [Compound CQ, Carbamic acid 6-amino-2-[6-amino-2-(2-amino-5-guanidino-pentyloxycarbonylamino)-hexyloxycarbonylamino]-hexyl ester] | 2350 nM
